Assay: Stability of 4-(4-fluorobenzylamino)-1-methylpiperidine (oil) and its trihydrate stored in a sealed container, purity and impurities over time
Assay type: physicochemical
Details: for decrease in purity: crude oil, sealed container
Experimental: The stability of the crude 4-(4-fluorobenzylamino)-1-methylpiperidine oil obtained by the process described in Example 1 was also assessed.
The crude 4-(4-fluorobenzylamino)-1-methylpiperidine oil decreased in purity by 0.5% after 1 month and 0.7% after 2.5 months.

[1] = Batch 3, sealed container, 0 months
[2] = Batch 3, sealed container, 1 month
[3] = Batch 4, sealed container, 0 months
[4] = Batch 4, sealed container, 2.5 months

Structure (SMILES) | stability on storage (decomposition) (stored under the same conditions as the amine oil (sealed container)) | Amine purity [1] | impurity I (% impurity) [1] | impurity II (% impurity) [1] | impurity III (% impurity) [1] | Amine purity [2] | impurity I (% impurity) [2] | impurity II (% impurity) [2] | impurity III (% impurity) [2] | Amine purity [3] | impurity I (% impurity) [3] | impurity II (% impurity) [3] | impurity III (% impurity) [3] | Amine purity [4] | impurity I (% impurity) [4] | impurity II (% impurity) [4] | impurity III (% impurity) [4] | decrease in purity (after 1 month) [%] | decrease in purity (after 2.5 months) [%]
CN1CCC(NCc2ccc(F)cc2)CC1 [4-(4-fluorobenzylamino)-1-methylpiperidine trihydrate] | stable, and no decomposition was observed | – | – | – | – | – | – | – | – | – | – | – | – | – | – | – | – | – | –
CN1CCC(NCc2ccc(F)cc2)CC1 [4-(4-fluorobenzylamino)-1-methylpiperidine] | – | Amine - 98.17% pure | I/(0.21) % | II/(0.12) % | III/(0.27) % | Amine - 97.66% pure | I/(0.26) % | II/(0.21) % | III/(0.59) % | Amine - 97.82% pure | I/(0.23) % | II/(0.12) % | III/(0.68) % | Amine - 97.09% pure | I/(0.18) % | II/(0.14) % | III/(1.15) % | 0.5 | 0.7
